{"source": "patent US7344845B2", "about": "“Olfactory receptor for isovaleric acid and related malodorants and use thereof in assays for identification of blockers of malodor” (Senomyx, Inc., priority 2001, dated 2008)", "test_system": "individual murine olfactory neurons", "assay": "Ca2+ imaging (fura-2) of isolated murine olfactory neurons contacted with isovaleric acid", "type": "cell-based, Balb/C mice", "experimental": "Essentially, individual murine olfactory neurons isolated from an enzymatically and mechanically dissociated preparations of murine olfactory epithelium. A very mild trypsin dissociation allows to obtain a single cell suspension in which neurons still bear their axon and dendrites and can therefore be picked based on their morphology. The neurons were loaded with a Ca^2+-sensing fluorescent dye (fura-2) and contacted with isovaleric acid (at 10–100 μM). Single neurons that responded to the isovaleric acid stimulus, as indicated by transient increases in the concentration of intracellular Ca2+ were identified in a microscope field and collected using a suction microcapillary. […]\nOlfactory neuroepithelium was dissected from Balb/C mice and placed in a small Petri dish with phosphate-buffered saline (PBS) without Ca^2+ and Mg^2+. […] After dissociation, the tissue was transferred into 5 ml PBS without Ca^2+ and Mg^2+ and the tissue was triturated very gently by pipetting up and down 4–5 times with plastic disposable, progress of cell dissociation was monitored under inverted microscope. […] Isolated olfactory sensory neurons were identified in an inverted microscope field either by their morphology alone (for random control neurons) or by the morphology and ability to respond to IVA as detected by Ca^2+-imaging. […]"}
{"smiles": "CC(C)CC(=O)O", "note": "[isovaleric acid]", "values": [{"measurement": "response of a single olfactory neuron indicated by changes in fura-2 fluorescence intensity ratios (340/380 nm)", "setting": "IVA at either 100 μM or 10 μM, single isolated neuron, FIG. 3", "result": "response"}, {"measurement": "murine olfactory receptors activated (receptors expressed in IVA-responding neurons)", "setting": "isovaleric acid at 10–100 μM, eleven murine olfactory receptors, mOR IVA A through mOR IVA L", "result": "activated"}]}
